Assay results from US20240270762A1, “PENICILLIN-BINDING PROTEIN INHIBITORS” (priority 2021, published 2024).
Converted amounts (≈) assume the structure as drawn.

How the values were obtained:
[1] = tested on: A. baumannii CDC-0036; assay: microbe, parasite or virus in culture; type: cell-based; details: Acinetobacter baumannii, CDC0036, read-out: MIC, A. baumannii CDC-0036
[2] = target: T1, PBP3 from Acinetobacter baumannii (ATCC 19606) (Acinetobacter baumannii, UniProt A0ABX6CK25); assay: Bocillin-FL fluorescence polarization competition binding, A. baumannii PBP3; details: fluorescence polarization competition binding assay using Bocillin-FL; read-out: A. baumannii PBP3 Potency
T1 sequence (A0ABX6CK25 64-610): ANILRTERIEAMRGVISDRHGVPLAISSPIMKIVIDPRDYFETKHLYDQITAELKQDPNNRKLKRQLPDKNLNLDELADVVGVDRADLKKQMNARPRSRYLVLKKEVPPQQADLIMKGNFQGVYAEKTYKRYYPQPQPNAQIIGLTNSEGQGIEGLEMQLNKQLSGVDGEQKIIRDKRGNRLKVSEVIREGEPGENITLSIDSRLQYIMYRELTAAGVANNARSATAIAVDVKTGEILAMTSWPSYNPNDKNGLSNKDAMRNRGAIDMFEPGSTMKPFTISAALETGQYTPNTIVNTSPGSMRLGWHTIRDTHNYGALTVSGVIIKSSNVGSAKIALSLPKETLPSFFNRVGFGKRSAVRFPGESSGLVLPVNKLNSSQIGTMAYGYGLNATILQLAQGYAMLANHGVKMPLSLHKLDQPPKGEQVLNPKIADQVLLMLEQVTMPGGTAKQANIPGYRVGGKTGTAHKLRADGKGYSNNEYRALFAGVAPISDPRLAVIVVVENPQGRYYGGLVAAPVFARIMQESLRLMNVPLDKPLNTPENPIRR
Procedure, shortened: (§1)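 Purified PBPs pre-incubated with inhibitor (E. coli PBP3 1.5 μM, 30 min; P. aeruginosa PBP3 0.75 μM, A. baumannii PBP1a 1 μM and PBP3 0.2 μM, 15 min), then Bocillin-FL 0.1 μM (0.05 μM for PBP1a) added; FP read up to 60 min. EC50 = concentration halving bound Bocillin-FL.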

[3] = target: T2, PBP3 from Pseudomonas aeruginosa (PAO1) (Pseudomonas aeruginosa, UniProt G3XD46); assay: Bocillin-FL fluorescence polarization competition binding, P. aeruginosa PBP3; details: Binding affinity to P. aeruginosa PBP3; fluorescence polarization competition binding assay using Bocillin-FL; read-out: P. aeruginosa PBP3 Potency
T2 construct: made in house
T2 sequence (G3XD46 whole entry): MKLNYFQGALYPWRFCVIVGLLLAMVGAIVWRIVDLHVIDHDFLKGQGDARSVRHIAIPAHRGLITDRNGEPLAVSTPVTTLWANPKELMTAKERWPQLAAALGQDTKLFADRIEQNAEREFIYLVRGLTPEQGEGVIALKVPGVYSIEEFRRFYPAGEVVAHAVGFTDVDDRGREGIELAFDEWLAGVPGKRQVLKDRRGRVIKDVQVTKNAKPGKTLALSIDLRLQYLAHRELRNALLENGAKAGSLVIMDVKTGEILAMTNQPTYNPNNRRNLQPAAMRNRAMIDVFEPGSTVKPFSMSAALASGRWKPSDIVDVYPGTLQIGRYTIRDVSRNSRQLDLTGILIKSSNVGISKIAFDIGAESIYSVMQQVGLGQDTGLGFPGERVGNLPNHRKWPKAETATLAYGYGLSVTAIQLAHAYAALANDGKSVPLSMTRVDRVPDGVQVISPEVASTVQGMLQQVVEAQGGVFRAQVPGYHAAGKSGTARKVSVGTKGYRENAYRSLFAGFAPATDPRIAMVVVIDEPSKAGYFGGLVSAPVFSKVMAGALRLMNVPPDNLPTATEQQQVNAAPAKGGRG
Procedure, shortened: as §1

[4] = target: T3, PBP3 from Escherichia coli (K-12) (Escherichia coli, UniProt P0AD68); assay: Bocillin-FL fluorescence polarization competition binding, E. coli PBP3
T3 construct: made in house
T3 sequence (P0AD68 1-577): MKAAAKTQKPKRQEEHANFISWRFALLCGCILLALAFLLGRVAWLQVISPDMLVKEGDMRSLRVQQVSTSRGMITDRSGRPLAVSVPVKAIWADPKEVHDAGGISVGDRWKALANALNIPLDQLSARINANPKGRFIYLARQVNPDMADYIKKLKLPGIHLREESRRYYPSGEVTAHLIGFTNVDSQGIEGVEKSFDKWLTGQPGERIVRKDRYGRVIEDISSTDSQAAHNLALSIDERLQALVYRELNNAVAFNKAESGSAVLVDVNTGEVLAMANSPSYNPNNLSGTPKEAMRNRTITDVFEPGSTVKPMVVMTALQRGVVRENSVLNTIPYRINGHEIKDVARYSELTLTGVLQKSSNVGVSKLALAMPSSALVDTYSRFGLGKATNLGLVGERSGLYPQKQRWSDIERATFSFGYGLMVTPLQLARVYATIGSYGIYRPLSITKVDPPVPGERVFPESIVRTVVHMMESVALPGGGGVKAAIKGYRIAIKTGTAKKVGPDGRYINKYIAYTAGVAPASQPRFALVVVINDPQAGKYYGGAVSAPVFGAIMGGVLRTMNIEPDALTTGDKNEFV
Procedure, shortened: as §1

[5] = tested on: P. aeruginosa ATCC 27853; assay: microbe, parasite or virus in culture; type: cell-based; details: Pseudomonas aeruginosa, ATCC27853, read-out: Minimum inhibitory concentration, P. aeruginosa ATCC 27853

Row | SMILES | MIC [1] [mg/L] | IC50 [2] [µM] | IC50 [3] [µM] | EC50 [4] [µM] | MIC [5] [mg/L]
1 | O=C(NCCCN1CCN(C(=O)N[C@H](C(=O)N[C@H]2Cc3ccc(F)c(C(=O)O)c3OB2O)c2cc(F)c(O)c(O)c2Cl)C(=O)C1=O)c1ccc(O)cc1Cl (single isomer, unassigned) [Example 470] | 32 to 64 (≈ 40.3 to 80.6 µM) | 10 to 50 | 10 to 50 | 50 to 250 | 2 to 4 (≈ 2.52 to 5.04 µM)
2 | O=C(O)c1c(F)ccc2c1OB(O)[C@@H](NC(=O)C(NC(=O)N1CCN(C3CCN(C(=O)c4c(F)ccc(O)c4F)CC3)C(=O)C1=O)c1cc(F)c(O)c(O)c1Cl)C2 (stereo partly drawn) [Example 308, (3R)-3-(2-(2-chloro-5-fluoro-3,4-dihydroxyphenyl)-2-(4-(1-(2,6-difluoro-3-hydroxybenzoyl)piperidin-4-yl)-2,3-dioxopiperazine-1-carboxamido)acetamido)-7-fluoro-2-hydroxy-3,4-dihydro-2H-benzo[e][1,2]oxaborinine-8-carboxylic acid] | 2 to 4 (≈ 2.43 to 4.87 µM) | < 10 | < 10 | < 10 | < 1
3 | O=C(NCCCN1CCN(C(=O)NC(C(=O)N[C@H]2Cc3ccc(F)c(C(=O)O)c3OB2O)c2cc(F)c(O)c(O)c2Cl)C(=O)C1=O)c1cc(O)cc(F)c1 (stereo partly drawn) [Example 410, (3R)-3-(2-(2-chloro-5-fluoro-3,4-dihydroxyphenyl)-2-(4-(3-(3-fluoro-5-hydroxybenzamido)propyl)-2,3-dioxopiperazine-1-carboxamido)acetamido)-7-fluoro-2-hydroxy-3,4-dihydro-2H-benzo[e][1,2]oxaborinine-8-carboxylic acid] | 2 to 4 (≈ 2.57 to 5.14 µM) | < 10 | < 10 | < 10 | < 1
4 | O=C(NCCCN1CCN(C(=O)NC(C(=O)N[C@H]2Cc3ccc(F)c(C(=O)O)c3OB2O)c2cc(F)c(O)c(O)c2Cl)C(=O)C1=O)c1ccc(F)c(O)c1 (stereo partly drawn) [Example 409, (3R)-3-(2-(2-chloro-5-fluoro-3,4-dihydroxyphenyl)-2-(4-(3-(4-fluoro-3-hydroxybenzamido)propyl)-2,3-dioxopiperazine-1-carboxamido)acetamido)-7-fluoro-2-hydroxy-3,4-dihydro-2H-benzo[e][1,2]oxaborinine-8-carboxylic acid] | 2 to 4 (≈ 2.57 to 5.14 µM) | < 10 | < 10 | < 10 | < 1
5 | O=C(O)c1c(F)ccc2c1OB(O)[C@@H](NC(=O)C(NC(=O)N1CCN(C3CCN(C(=O)c4cncc(O)c4)CC3)C(=O)C1=O)c1cc(F)c(O)c(O)c1Cl)C2 (stereo partly drawn) [Example 425, (3R)-3-(2-(2-chloro-5-fluoro-3,4-dihydroxyphenyl)-2-(4-(1-(5-hydroxynicotinoyl)piperidin-4-yl)-2,3-dioxopiperazine-1-carboxamido)acetamido)-7-fluoro-2-hydroxy-3,4-dihydro-2H-benzo[e][1,2]oxaborinine-8-carboxylic acid] | < 1 | < 10 | < 10 | < 10 | < 1
6 | O=C(NCCCN1CCN(C(=O)NC(C(=O)N[C@H]2Cc3ccc(F)c(C(=O)O)c3OB2O)c2cc(F)c(O)c(O)c2Cl)C(=O)C1=O)c1ccc(F)c(O)c1F (stereo partly drawn) [Example 411, (3R)-3-(2-(2-chloro-5-fluoro-3,4-dihydroxyphenyl)-2-(4-(3-(2,4-difluoro-3-hydroxybenzamido)propyl)-2,3-dioxopiperazine-1-carboxamido)acetamido)-7-fluoro-2-hydroxy-3,4-dihydro-2H-benzo[e][1,2]oxaborinine-8-carboxylic acid] | 2 to 4 (≈ 2.51 to 5.03 µM) | < 10 | < 10 | < 10 | < 1
7 | O=C(NCCCN1CCN(C(=O)NC(C(=O)N[C@H]2Cc3ccc(F)c(C(=O)O)c3OB2O)c2cc(F)c(O)c(O)c2Cl)C(=O)C1=O)c1ccnc(F)c1 (stereo partly drawn) [Example 466, (3R)-3-(2-(2-chloro-5-fluoro-3,4-dihydroxyphenyl)-2-(4-(3-(2-fluoroisonicotinamido)propyl)-2,3-dioxopiperazine-1-carboxamido)acetamido)-7-fluoro-2-hydroxy-3,4-dihydro-2H-benzo[e][1,2]oxaborinine-8-carboxylic acid] | 2 to 4 (≈ 2.62 to 5.24 µM) | < 10 | < 10 | < 10 | 2 to 4 (≈ 2.62 to 5.24 µM)
8 | O=C(NCCCN1CCN(C(=O)N[C@@H](C(=O)N[C@H]2Cc3ccc(F)c(C(=O)O)c3OB2O)c2cc(F)c(O)c(O)c2Cl)C(=O)C1=O)c1ccc(O)cc1F (racemic) [Example 417] | 2 to 4 (≈ 2.57 to 5.14 µM) | 10 to 50 | < 10 | < 10 | 8 to 16 (≈ 10.3 to 20.6 µM)
9 | O=C(NCCCN1CCN(C(=O)NC(C(=O)N[C@H]2Cc3ccc(F)c(C(=O)O)c3OB2O)c2cc(F)c(O)c(O)c2Cl)C(=O)C1=O)c1c(F)ccc(O)c1Cl (stereo partly drawn) [Example 414, (3R)-3-(2-(2-chloro-5-fluoro-3,4-dihydroxyphenyl)-2-(4-(3-(2-chloro-6-fluoro-3-hydroxybenzamido)propyl)-2,3-dioxopiperazine-1-carboxamido)acetamido)-7-fluoro-2-hydroxy-3,4-dihydro-2H-benzo[e][1,2]oxaborinine-8-carboxylic acid] | 2 to 4 (≈ 2.46 to 4.92 µM) | < 10 | < 10 | < 10 | < 1
10 | O=C(O)c1c(F)ccc2c1OB(O)[C@@H](NC(=O)C(NC(=O)N1CCN(C3CCN(C(=O)c4cc(O)cc(O)c4)CC3)C(=O)C1=O)c1cc(F)c(O)c(O)c1Cl)C2 (stereo partly drawn) [Example 309, (3R)-3-(2-(2-chloro-5-fluoro-3,4-dihydroxyphenyl)-2-(4-(1-(3,5-dihydroxybenzoyl)piperidin-4-yl)-2,3-dioxopiperazine-1-carboxamido)acetamido)-7-fluoro-2-hydroxy-3,4-dihydro-2H-benzo[e][1,2]oxaborinine-8-carboxylic acid] | < 1 | < 10 | < 10 | < 10 | 2 to 4 (≈ 2.49 to 4.99 µM)
11 | O=C(NCCCN1CCN(C(=O)NC(C(=O)N[C@H]2Cc3ccc(F)c(C(=O)O)c3OB2O)c2cc(F)c(O)c(O)c2Cl)C(=O)C1=O)c1ccc(F)c(O)c1Cl (stereo partly drawn) [Example 412, (3R)-3-(2-(4-(3-(2-chloro-4-fluoro-3-hydroxybenzamido)propyl)-2,3-dioxopiperazine-1-carboxamido)-2-(2-chloro-5-fluoro-3,4-dihydroxyphenyl)acetamido)-7-fluoro-2-hydroxy-3,4-dihydro-2H-benzo[e][1,2]oxaborinine-8-carboxylic acid] | 8 to 16 (≈ 9.85 to 19.7 µM) | < 10 | < 10 | < 10 | < 1
12 | O=C(NCCCN1CCN(C(=O)NC(C(=O)N[C@H]2Cc3ccc(F)c(C(=O)O)c3OB2O)c2cc(F)c(O)c(O)c2Cl)C(=O)C1=O)c1ccc(O)c(F)c1Cl (stereo partly drawn) [Example 418, (3R)-3-(2-(4-(3-(2-chloro-3-fluoro-4-hydroxybenzamido)propyl)-2,3-dioxopiperazine-1-carboxamido)-2-(2-chloro-5-fluoro-3,4-dihydroxyphenyl)acetamido)-7-fluoro-2-hydroxy-3,4-dihydro-2H-benzo[e][1,2]oxaborinine-8-carboxylic acid] | 2 to 4 (≈ 2.46 to 4.92 µM) | < 10 | < 10 | < 10 | 2 to 4 (≈ 2.46 to 4.92 µM)
13 | O=C(NCCCN1CCN(C(=O)NC(C(=O)N[C@H]2Cc3ccc(F)c(C(=O)O)c3OB2O)c2cc(F)c(O)c(O)c2Cl)C(=O)C1=O)c1ccncc1F (stereo partly drawn) [Example 400, (3R)-3-(2-(2-chloro-5-fluoro-3,4-dihydroxyphenyl)-2-(4-(3-(3-fluoroisonicotinamido)propyl)-2,3-dioxopiperazine-1-carboxamido)acetamido)-7-fluoro-2-hydroxy-3,4-dihydro-2H-benzo[e][1,2]oxaborinine-8-carboxylic acid] | 2 to 4 (≈ 2.62 to 5.24 µM) | < 10 | < 10 | < 10 | 2 to 4 (≈ 2.62 to 5.24 µM)
14 | O=C(O)c1c(F)ccc2c1OB(O)[C@@H](NC(=O)C(NC(=O)N1CCN(C3CCN(S(=O)(=O)c4cccc(O)c4)CC3)C(=O)C1=O)c1cc(F)c(O)c(O)c1Cl)C2 (stereo partly drawn) [Example 428, (3R)-3-(2-(2-chloro-5-fluoro-3,4-dihydroxyphenyl)-2-(4-(1-((3-hydroxyphenyl)sulfonyl)piperidin-4-yl)-2,3-dioxopiperazine-1-carboxamido)acetamido)-7-fluoro-2-hydroxy-3,4-dihydro-2H-benzo[e][1,2]oxaborinine-8-carboxylic acid] | 2 to 4 (≈ 2.43 to 4.87 µM) | < 10 | < 10 | < 10 | 2 to 4 (≈ 2.43 to 4.87 µM)
